Experimental data taken from US11266655B2, “Methods and compositions for treating urea cycle disorders” (Camp4 Therapeutics Corporation, priority 2019, dated 2022).
Where “and” joins values, the source holds several entries; their conditions need not be identical. Identical values can stand only once. Like-named read-outs stand apart in the source and are kept apart here.

Legend:
[1] = tested on: SLC25A13; experiment: RNA-seq of compound-treated primary human hepatocytes, SLC25A13 expression; type: cell-based; conditions: for Relative SLC25A13 level vs Untreated (±Standard Deviation): primary human hepatocytes, triplicate (Table 23, FIG. 15)
[2] = tested on: SLC25A15; experiment: RNA-seq of compound-treated primary human hepatocytes, SLC25A15 expression; type: cell-based
[3] = tested on: ASS1; experiment: RNA-seq of compound-treated primary human hepatocytes, ASS1 expression; type: cell-based
[4] = tested on: CPS1; experiment: RNA-seq of compound-treated primary human hepatocytes, CPS1 expression; type: cell-based; conditions: primary human hepatocytes; for Relative CPS1 level vs Untreated (±Standard Deviation): triplicate (Table 19, FIG. 11); for CPS1 expression, Fold change (Log 2) vs untreated: RNA-seq
[5] = tested on: NAGS; type: cell-based, human
[6] = tested on: ARG1; experiment: RNA-seq of compound-treated primary human hepatocytes, ARG1 expression; type: cell-based; conditions: primary human hepatocytes; for Relative ARGI level vs Untreated (±Standard Deviation): triplicate (Table 17, FIG. 9); for Fold change (Log 2) vs untreated, ARG1 expression: RNA-seq (Table 7)
[7] = tested on: OTC; experiment: RNA-seq of compound-treated primary human hepatocytes, OTC expression; type: cell-based; conditions: primary human hepatocytes, RNA-seq
[8] = tested on: urea cycle genes; experiment: RNA-seq of primary human hepatocytes, compounds that modulate multiple urea cycle-related genes; type: cell-based; conditions: primary human hepatocytes, RNA-seq; for Up-regulated Genes: urea cycle-related genes significantly increased (Table 10)
[9] = 3 μM, primary human hepatocytes, triplicate (Table 24, FIG. 16A-B)
[10] = 10 μM, primary human hepatocytes, triplicate (Table 24, FIG. 16A-B)
[11] = 10 μM, primary human hepatocytes, triplicate (Table 15, FIG. 7)
[12] = 0.3 μM, primary human hepatocytes, triplicate (Table 21, FIG. 13)
[13] = 1 μM, primary human hepatocytes, triplicate (Table 21, FIG. 13)
[14] = 10 μM, primary human hepatocytes, triplicate (Table 21, FIG. 13)
[15] = Example 11, relative mRNA vs DMSO

Molecule	Relative SLC25A13 level vs Untreated (±Standard Deviation) ([1]; 3 μM)	Relative SLC25A13 level vs Untreated (±Standard Deviation) ([1]; 10 μM)	Relative ASS1 level vs Untreated (±Standard Deviation) [3, 11]	OTC expression, Fold change (Log 2) vs untreated [7] [Log 2]	number of urea cycle genes whose expression was significantly up-regulated [8]	Up-regulated Genes [8]	CPS1 expression, Fold change (Log 2) vs untreated [4] [Log 2]	Fold change (Log 2) vs untreated, ARG1 expression [6] [Log 2]	other results
COc1ccc(-c2ccc3c(N4CCOC[C@@H]4C)nc(N4CCOC[C@@H]4C)nc3n2)cc1CO [AZD8055]	1.33 ± 0.06	1.54 ± 0.12	1.44 ± 0.27						Relative SLC25A15 level vs Untreated (±Standard Deviation) [2, 9]: 1.33 ± 0.06 and 1.85 ± 0.26; Relative SLC25A15 level vs Untreated (±Standard Deviation) [2, 10]: 1.54 ± 0.12 and 1.68 ± 0.26; Relative CPS1 level vs Untreated (±Standard Deviation) ([4]; 0.3 μM): 1.38 ± 0.27; Relative CPS1 level vs Untreated (±Standard Deviation) ([4]; 1 μM): 1.38 ± 0.67; Relative CPS1 level vs Untreated (±Standard Deviation) ([4]; 3 μM): 1.60 ± 0.07; Relative NAGS level vs Untreated (±Standard Deviation) [5, 12]: 1.31 ± 0.20; Relative NAGS level vs Untreated (±Standard Deviation) [5, 13]: 1.41 ± 0.28; Relative NAGS level vs Untreated (±Standard Deviation) [5, 14]: 1.93 ± 0.02; increase in NAGS gene expression (Tables 21, 22, FIG. 13, 14) [5, 15]: greatest increase; Relative ARGI level vs Untreated (±Standard Deviation) ([6]; 1 μM): 1.34 ± 0.24; Relative ARGI level vs Untreated (±Standard Deviation) ([6]; 3 μM): 1.42 ± 0.03; Relative ARGI level vs Untreated (±Standard Deviation) ([6]; 10 μM): 1.35 ± 0.08
COc1ccc(-c2ccc3c(N4CCOC[C@@H]4C)nc(N4CCOC[C@@H]4C)nc3n2)cc1CO [AZD-8055]	1.35 ± 0.06	1.64 ± 0.09	1.66 ± 0.11						Relative SLC25A15 level vs Untreated (±Standard Deviation) [2, 9]: 1.3 ± 0.06; Relative SLC25A15 level vs Untreated (±Standard Deviation) [2, 10]: 1.64 ± 0.09; Relative CPS1 level vs Untreated (±Standard Deviation) ([4]; 1 μM): 1.42 ± 0.24; Relative NAGS level vs Untreated (±Standard Deviation) [5, 14]: 1.43 ± 0.01; Relative ARGI level vs Untreated (±Standard Deviation) ([6]; 0.3 μM): 1.44 ± 0.09; Relative ARGI level vs Untreated (±Standard Deviation) ([6]; 1 μM): 1.43 ± 0.25; Relative ARGI level vs Untreated (±Standard Deviation) ([6]; 3 μM): 1.36 ± 0.07
CCNC(=O)Nc1ccc(-c2nc(N3CCOC[C@@H]3C)c3c(n2)C(C)(C)S(=O)(=O)C3)cc1 [CZ415]	1.61 ± 0.19	1.52 ± 0.17	1.65 ± 0.11						Relative SLC25A15 level vs Untreated (±Standard Deviation) [2]: 1.61 ± 0.19 and 1.52 ± 0.17; Relative CPS1 level vs Untreated (±Standard Deviation) ([4]; 1 μM): 1.32 ± 0.04; Relative NAGS level vs Untreated (±Standard Deviation) [5]: 2.00 ± 0.27; increase in NAGS gene expression (Tables 21, 22, FIG. 13, 14) [5]: greatest increase; Relative ARGI level vs Untreated (±Standard Deviation) ([6]; 3 μM): 1.35 ± 0.12
O=C1CCc2c(Oc3ccc4c(c3)[C@@H]3[C@H](O4)[C@H]3c3nc4ccc(C(F)(F)F)cc4[nH]3)ccnc2N1 [Lifirafenib (BGB-283), Lifirafenib]		1.92 ± 0.11							increase in SLC25A13 gene expression (Table 23, FIG. 15) [1, 15]: greatest increase; Relative SLC25A15 level vs Untreated (±Standard Deviation) [2]: 1.92 ± 0.11 and 2.00 ± 0.13; Relative ASS1 level vs Untreated (±Standard Deviation) [3]: 1.55 ± 0.28; Relative NAGS level vs Untreated (±Standard Deviation) [5]: 1.35 ± 0.35 and 1.44 ± 0.15
COc1cccc2cc(-c3nc([C@H]4CC[C@H](C(=O)O)CC4)n4ncnc(N)c34)[nH]c12 [OSI-027]	1.87 ± 0.46	1.52 ± 0.04	2.05 ± 0.00						Relative SLC25A13 level vs Untreated (±Standard Deviation) ([1]; 1 μM): 1.53 ± 0.01; Relative SLC25A15 level vs Untreated (±Standard Deviation) ([2]; 1 μM, primary human hepatocytes, triplicate (Table 24, FIG. 16A-B)): 1.53 ± 0.01; Relative SLC25A15 level vs Untreated (±Standard Deviation) [2, 9]: 1.87 ± 0.46; Relative SLC25A15 level vs Untreated (±Standard Deviation) [2, 10]: 1.52 ± 0.04; Relative ASS1 level vs Untreated (±Standard Deviation) ([3]; 1 μM, primary human hepatocytes, triplicate (Table 15, FIG. 7)): 1.55 ± 0.16; Relative ASS1 level vs Untreated (±Standard Deviation) ([3]; 3 μM, primary human hepatocytes, triplicate (Table 15, FIG. 7)): 1.45 ± 0.10; Relative NAGS level vs Untreated (±Standard Deviation) [5, 12]: 1.46 ± 0.07; Relative NAGS level vs Untreated (±Standard Deviation) [5, 13]: 1.37 ± 0.27; Relative NAGS level vs Untreated (±Standard Deviation) ([5]; 3 μM, primary human hepatocytes, triplicate (Table 21, FIG. 13)): 2.51 ± 0.16; Relative NAGS level vs Untreated (±Standard Deviation) [5, 14]: 2.14 ± 0.12
Activin				0.94	four	NAGS, CPS1, OTC, ARG1	2.23	2.01	Fold change (Log 2) vs untreated, NAGS expression [5]: 0.69 Log 2
HGF/SF: Hepatocyte Growth Factor, also known as scatter factor (SF)				0.56	four	NAGS, CPS1, OTC, ARG1	2.02	1.51	Fold change (Log 2) vs untreated, NAGS expression [5]: 0.56 Log 2
PDGF				0.77	four	CPS1, OTC, ARG1, SLC25A15	2.12	1.85	Fold change (Log 2) vs untreated, SLC25A15 expression ([2]; primary human hepatocytes, RNA-seq (Table 8)): 0.71 Log 2
TNF-α				0.87	four	CPS1, ASS1, OTC, ARG1	2.31		Fold change (Log 2) vs untreated, ASS1 expression ([3]; primary human hepatocytes, RNA-seq (Table 4)): 0.58 Log 2
Anti mullerian hormone: member of the TGF-B gene family which mediates male sexual differentiation (protein, UniProt P03971 452-560, looked up) Muellerian-inhibiting factor: SAGATAADGPCALRELSVDLRAERSVLIPETYQANNCQGVCGWPQSDRNPRYGNHVVLLLKMQVRGAALARPPCCVPTAYAGKLLISLSEERISAHHVPNMVATECGCR				0.81	three	CPS1, OTC, ARG1	2.35	2.06	
Wnt3a: secreted signaling protein of the WNT gene family (protein, UniProt P56704 19-352, looked up) Protein Wnt-3a: SYPIWWSLAVGPQYSSLGSQPILCASIPGLVPKQLRFCRNYVEIMPSVAEGIKIGIQECQHQFRGRRWNCTTVHDSLAIFGPVLDKATRESAFVHAIASAGVAFAVTRSCAEGTAAICGCSSRHQGSPGKGWKWGGCSEDIEFGGMVSREFADARENRPDARSAMNRHNNEAGRQAIASHMHLKCKCHGLSGSCEVKTCWWSQPDFRAIGDFLKDKYDSASEMVVEKHRESRGWVETLRPRYTYFKVPTERDLVYYEASPNFCEPNPETGSFGTRDRTCNVSSHGIDGCDLLCCGRGHNARAERRREKCRCVFHWCCYVSCQECTRVYDVHTCK				0.92	four	CPS1, OTC, ARG1, SLC25A15	2.6	2.07	
Nodal: 13 kDa member of the TGF-B superfamily (protein, UniProt Q96S42 238-347, looked up) Nodal homolog: HHLPDRSQLCRKVKFQVDFNLIGWGSWIIYPKQYNAYRCEGECPNPVGEEFHPTNHAYIQSLLKRYQPHRVPSTCCAPVKTKPLSMLYVDNGRVLLDHHKDMIVEECGCL				0.68	three	CPS1, OTC, ARG1	2.44	2.05	
